Results: patent US8217035B2, “Pyrimidine derivatives used as PI-3-kinase inhibitors” (Novartis AG, priority 2006, dated 2012)

These compounds were tested on pSer473 Akt in A2780 cells (assay: pSer473 Akt assay to monitor PI3K pathway in A2780 cells (Biological Method 2, MSD)). Conditions: Homo sapiens; inhibition of Akt phosphorylation, A2780 cells.
Type: cell-based
Procedure: In this method, an assay for measuring the PI3K-mediated pSer473-Akt status after treatment with representative inhibitor compounds of the invention is described.
A2780 cells were cultured in DMEM supplemented with 10% FBS. L-glutamine, sodium pyruvate, and antibiotics. Cells were plated in the same medium at a density of 15,000 cells per well into 96 well tissue culture plates, with outside wells vacant, and allowed to adhere overnight.
Test compounds supplied in DMSO were diluted further into DMSO at 500 times the desired final concentrations before dilution into culture media to 2 times the final concentrations. Equal volumes of 2× compounds were added to the cells in 96 well plates and incubated at 37° C. for one hour. The media and compounds were then removed, the plates chilled and cells lysed in a lysis buffer (150 mM NaCl, 20 mM Tris pH 7.5, 1 mM EDTA, 1 mM EGTA, 1% Triton X-100) supplemented with phosphatase and protease inhibitors. After thorough mixing, lysates were transferred to both pSer473Akt and total Akt assay plates from Meso Scale Discovery (MSD), and incubated overnight with shaking at 4° C.
The assays were read on a SECTOR Imager 6000 instrument (Meso Scale Discovery). Ratios of the signal from pSer473Akt and total Akt assays were used to correct for any variability and the percent inhibition of pSer473Akt from the total signal seen in cells treated with compound versus DMSO alone was calculated and used to determine EC50 values for each compound.

Row | SMILES | EC50
1 | CN1CCC(Oc2ccc(Nc3cc(-c4cnc(N)nc4)nc(N4CCOCC4)n3)cn2)CC1 [Compound 37] | < 1000 nM
2 | Nc1cc(Cl)c(-c2cc(Nc3cnc4ccccc4c3)nc(N3CCOCC3)n2)cn1 [Compound 175] | < 1000 nM
3 | Nc1ncc(-c2cc(Nc3cnc4ccccc4c3)nc(N3CCOCC3)n2)cn1 [Compound 1] | < 1000 nM
4 | Nc1ncc(-c2cc(Nc3cnc4ccccc4c3)nc(N3CCOCC3)n2)c(C(F)(F)F)n1 [Compound 192] | < 1000 nM
5 | Nc1ncc(-c2cc(N3CCOCC3)nc(N3CCOCC3)n2)cn1 [Compound 100] | < 1000 nM
6 | N#Cc1cc(N)ncc1-c1cc(Nc2cnc3ccccc3c2)nc(N2CCOCC2)n1 [Compound 5] | < 10000 nM

These compounds were tested on A2780 ovarian cancer cells (assay: Cellular proliferation in A2780 cells, Cell Titer Glo (Biological Method 4)). Conditions: Homo sapiens; ovarian cancer cell line A2780.
Type: cell-based
How it was run: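 Viability after 72 h compound exposure (37 °C, 5% CO2) was read by Cell Titer Glo and an EC50 derived, each condition in duplicate. A2780 ovarian cells had been plated at 1,000 per well in DMEM/10% FBS at least 2 h beforehand.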

Row | SMILES | EC50
7 | CN1CCC(Oc2ccc(Nc3cc(-c4cnc(N)nc4)nc(N4CCOCC4)n3)cn2)CC1 [Compound 37] | < 1000 nM
8 | Nc1cc(Cl)c(-c2cc(Nc3cnc4ccccc4c3)nc(N3CCOCC3)n2)cn1 [Compound 175] | < 1000 nM
9 | Nc1ncc(-c2cc(Nc3cnc4ccccc4c3)nc(N3CCOCC3)n2)cn1 [Compound 1] | < 1000 nM
10 | CC(C)OC(=O)N1CCC(Oc2cc(-c3cnc(N)cc3C(F)(F)F)nc(N3CCOCC3)n2)CC1 [Compound 460] | < 10000 nM
11 | Nc1ncc(-c2cc(N3CCCc4ccccc43)nc(N3CCOCC3)n2)cn1 [Compound 411] | < 10000 nM
12 | Nc1ncc(-c2cc(O[C@@H]3CCCN(C(=O)OC4CCCC4)C3)nc(N3CCOCC3)n2)c(N)n1 [Compound 526] | < 10000 nM
13 | Nc1ncc(-c2cc(OC3CCOCC3)nc(N3CCOCC3)n2)cn1 [Compound 515] | < 1000 nM
14 | Nc1ncc(-c2cc(Nc3cnc4ccccc4c3)nc(N3CCOCC3)n2)c(C(F)(F)F)n1 [Compound 192] | < 1000 nM
15 | Nc1ncc(-c2cc(N3CCOCC3)nc(N3CCOCC3)n2)cn1 [Compound 100] | < 1000 nM
16 | N#Cc1cc(N)ncc1-c1cc(Nc2cnc3ccccc3c2)nc(N2CCOCC2)n1 [Compound 5] | < 1000 nM
17 | CN(C)c1nc2ccccc2cc1-c1cc(-c2ccc(N)nc2)nc(N2CCOCC2)n1 [Compound 500] | < 10000 nM
18 | Nc1ncc(-c2cc(Nc3cnc4ccc(OC(F)(F)F)cc4c3)nc(N3CCOCC3)n2)cn1 [Compound 495] | < 25000 nM
19 | Cc1nc(N)ncc1-c1cc(Nc2ccc3c(c2)OCCO3)nc(N2CCOCC2)n1 [Compound 477] | < 10000 nM

Same assay, conditions: Homo sapiens; ovarian cancer cell line A2780, Biological Method 4

Row | SMILES | EC50
20 | CS(=O)(=O)Nc1ncccc1-c1cc(-c2cnc(N)nc2N)nc(N2CCOCC2)n1 [Compound 260] | < 10000 nM
21 | CS(=O)(=O)c1cccc(Nc2cc(-c3cnc(N)cc3C(F)(F)F)nc(N3CCOCC3)n2)c1 [Compound 238] | < 10000 nM
22 | CC(=O)c1ccccc1-c1cc(-c2ccc(N)nc2)nc(N2CCOCC2)n1 [Compound 255] | < 25000 nM
23 | Nc1cc(C(F)(F)F)c(-c2cc(NC3CCOCC3)nc(N3CCOCC3)n2)cn1 [Compound 322] | < 25000 nM
24 | Cc1c(-c2cnc(N)nc2)nc(N2CCOCC2)nc1-c1cncc(OCCN(C)C)c1 [Compound 270] | < 25000 nM
25 | Nc1ncc(-c2cc(C(=O)N3CCCCC3)nc(N3CCOCC3)n2)cn1 [Compound 234] | < 25000 nM
26 | Nc1cc(C(F)(F)F)c(-c2cc(N3CCOC(c4ccccc4Cl)C3)nc(N3CCOCC3)n2)cn1 (centres unmarked) [Compound 337] | < 25000 nM
27 | Nc1cc(C(F)(F)F)c(-c2cc(N3CCS(=O)(=O)CC3)nc(N3CCOCC3)n2)cn1 [Compound 331] | < 25000 nM
28 | Nc1cc(C(F)(F)F)c(-c2cc(-c3cncc(CN4CCCC4)c3)nc(N3CCOCC3)n2)cn1 [Compound 264] | < 10000 nM
29 | Nc1cc(C(F)(F)F)c(-c2cc(N3CCOC(c4ccc(Cl)cc4)C3)nc(N3CCOCC3)n2)cn1 (centres unmarked) [Compound 336] | < 10000 nM
30 | CN(C)CCOc1ccc(Nc2cc(-c3cnc(N)cc3C(F)(F)F)nc(N3CCOCC3)n2)cn1 [Compound 269] | < 10000 nM
31 | CN1CCC(C(=O)Nc2cc(-c3cnc(N)nc3)nc(N3CCOCC3)n2)CC1 [Compound 289] | < 10000 nM
32 | Nc1ccc(-c2cc(Nc3ccc(N4CCNCC4)nc3)nc(N3CCOCC3)n2)cn1 [Compound 299] | < 10000 nM
33 | Cn1cc(-c2cc(-c3ccc(N)nc3)nc(N3CCOCC3)n2)cn1 [Compound 247] | < 10000 nM
34 | Nc1ncc(-c2cc(-c3cnc(N)nc3)nc(N3CCOCC3)n2)cn1 [Compound 279] | < 10000 nM

These compounds were tested against PI3 kinase alpha (Homo sapiens, UniProt P42336) (assay: PI3K ATP depletion assay (Biological Method 1, Assay 3; KinaseGlo luminescence)). Conditions: ATP depletion assay, Biological Method 1; read-out: PI3 Kinase Alpha, IC50.
Chain of PI3 kinase alpha (P42336 whole entry): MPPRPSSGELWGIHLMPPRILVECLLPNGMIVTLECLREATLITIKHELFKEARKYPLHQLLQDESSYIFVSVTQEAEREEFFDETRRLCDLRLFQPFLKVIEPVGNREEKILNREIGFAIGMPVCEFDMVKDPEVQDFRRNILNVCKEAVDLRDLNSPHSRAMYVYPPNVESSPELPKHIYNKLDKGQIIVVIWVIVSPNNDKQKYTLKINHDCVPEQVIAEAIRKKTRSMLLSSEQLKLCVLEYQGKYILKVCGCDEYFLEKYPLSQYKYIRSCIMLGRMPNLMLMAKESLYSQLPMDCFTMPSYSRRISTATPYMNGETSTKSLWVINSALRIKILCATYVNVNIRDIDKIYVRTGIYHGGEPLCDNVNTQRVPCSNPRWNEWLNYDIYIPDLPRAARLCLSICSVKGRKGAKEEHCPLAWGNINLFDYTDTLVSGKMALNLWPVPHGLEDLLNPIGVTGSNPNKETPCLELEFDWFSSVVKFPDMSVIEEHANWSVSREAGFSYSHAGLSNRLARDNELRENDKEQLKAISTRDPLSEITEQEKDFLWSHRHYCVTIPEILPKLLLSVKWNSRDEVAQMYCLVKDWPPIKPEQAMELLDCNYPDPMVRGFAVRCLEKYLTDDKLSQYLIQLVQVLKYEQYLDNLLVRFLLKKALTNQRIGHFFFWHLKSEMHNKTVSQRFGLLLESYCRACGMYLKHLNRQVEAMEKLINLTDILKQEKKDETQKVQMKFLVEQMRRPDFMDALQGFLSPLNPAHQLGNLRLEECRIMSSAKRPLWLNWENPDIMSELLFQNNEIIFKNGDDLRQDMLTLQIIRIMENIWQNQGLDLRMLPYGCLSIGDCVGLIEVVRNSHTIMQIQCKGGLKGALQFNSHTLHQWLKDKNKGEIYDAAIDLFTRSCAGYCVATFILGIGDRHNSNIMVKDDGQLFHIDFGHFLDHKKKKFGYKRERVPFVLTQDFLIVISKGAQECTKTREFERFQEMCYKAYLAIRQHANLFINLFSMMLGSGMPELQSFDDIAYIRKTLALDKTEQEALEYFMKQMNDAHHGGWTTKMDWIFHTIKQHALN
Chain of PI3 kinase alpha (P27986 whole entry partner): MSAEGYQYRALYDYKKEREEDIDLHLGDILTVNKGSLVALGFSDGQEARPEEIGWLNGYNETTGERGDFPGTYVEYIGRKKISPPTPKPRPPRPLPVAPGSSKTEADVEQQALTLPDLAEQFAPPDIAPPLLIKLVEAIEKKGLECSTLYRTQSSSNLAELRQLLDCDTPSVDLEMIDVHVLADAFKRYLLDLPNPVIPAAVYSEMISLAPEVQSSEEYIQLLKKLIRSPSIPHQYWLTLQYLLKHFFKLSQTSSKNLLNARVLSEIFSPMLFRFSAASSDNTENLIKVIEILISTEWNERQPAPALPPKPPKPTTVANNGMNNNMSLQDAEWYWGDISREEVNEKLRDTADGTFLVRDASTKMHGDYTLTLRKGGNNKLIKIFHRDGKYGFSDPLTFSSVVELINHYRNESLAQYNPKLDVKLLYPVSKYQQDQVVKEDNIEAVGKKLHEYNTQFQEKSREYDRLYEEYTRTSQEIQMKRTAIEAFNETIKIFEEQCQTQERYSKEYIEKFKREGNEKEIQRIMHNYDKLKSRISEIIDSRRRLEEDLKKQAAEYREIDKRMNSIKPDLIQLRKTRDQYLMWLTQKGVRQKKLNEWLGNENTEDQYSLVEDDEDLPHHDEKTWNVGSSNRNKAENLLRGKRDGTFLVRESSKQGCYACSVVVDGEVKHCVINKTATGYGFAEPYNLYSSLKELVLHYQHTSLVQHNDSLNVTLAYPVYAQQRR
Type: biochemical
How it was run: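 Compound in DMSO was mixed with 10 nM PI3 kinase and 5 μg/mL phosphatidylinositol, and the reaction was started with 2 μM ATP. It ran to about 50% ATP depletion and was stopped with KinaseGlo.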

Row | SMILES | IC50
35 | CS(=O)(=O)Nc1ncccc1-c1cc(-c2cnc(N)nc2N)nc(N2CCOCC2)n1 [Compound 260] | < 1000 nM
36 | CS(=O)(=O)c1cccc(Nc2cc(-c3cnc(N)cc3C(F)(F)F)nc(N3CCOCC3)n2)c1 [Compound 238] | < 1000 nM
37 | CC(=O)c1ccccc1-c1cc(-c2ccc(N)nc2)nc(N2CCOCC2)n1 [Compound 255] | < 1000 nM
38 | Nc1cc(C(F)(F)F)c(-c2cc(NC3CCOCC3)nc(N3CCOCC3)n2)cn1 [Compound 322] | < 1000 nM
39 | Cc1c(-c2cnc(N)nc2)nc(N2CCOCC2)nc1-c1cncc(OCCN(C)C)c1 [Compound 270] | < 1000 nM
40 | Nc1ncc(-c2cc(C(=O)N3CCCCC3)nc(N3CCOCC3)n2)cn1 [Compound 234] | < 1000 nM
41 | Nc1cc(C(F)(F)F)c(-c2cc(N3CCOC(c4ccccc4Cl)C3)nc(N3CCOCC3)n2)cn1 (centres unmarked) [Compound 337] | < 1000 nM
42 | Nc1cc(C(F)(F)F)c(-c2cc(N3CCS(=O)(=O)CC3)nc(N3CCOCC3)n2)cn1 [Compound 331] | < 1000 nM
43 | Nc1cc(C(F)(F)F)c(-c2cc(-c3cncc(CN4CCCC4)c3)nc(N3CCOCC3)n2)cn1 [Compound 264] | < 1000 nM
44 | Nc1cc(C(F)(F)F)c(-c2cc(N3CCOC(c4ccc(Cl)cc4)C3)nc(N3CCOCC3)n2)cn1 (centres unmarked) [Compound 336] | < 1000 nM
45 | CN(C)CCOc1ccc(Nc2cc(-c3cnc(N)cc3C(F)(F)F)nc(N3CCOCC3)n2)cn1 [Compound 269] | < 1000 nM
46 | CN1CCC(C(=O)Nc2cc(-c3cnc(N)nc3)nc(N3CCOCC3)n2)CC1 [Compound 289] | < 1000 nM
47 | Nc1ccc(-c2cc(Nc3ccc(N4CCNCC4)nc3)nc(N3CCOCC3)n2)cn1 [Compound 299] | < 1000 nM
48 | Cn1cc(-c2cc(-c3ccc(N)nc3)nc(N3CCOCC3)n2)cn1 [Compound 247] | < 1000 nM
49 | Nc1ncc(-c2cc(-c3cnc(N)nc3)nc(N3CCOCC3)n2)cn1 [Compound 279] | < 1000 nM

Same assay, conditions: ATP depletion assay; read-out: PI3 Kinase Alpha, IC50

Row | SMILES | IC50
50 | CC(C)OC(=O)N1CCC(Oc2cc(-c3cnc(N)cc3C(F)(F)F)nc(N3CCOCC3)n2)CC1 [Compound 460] | < 1000 nM
51 | Nc1ncc(-c2cc(N3CCCc4ccccc43)nc(N3CCOCC3)n2)cn1 [Compound 411] | < 1000 nM
52 | Nc1ncc(-c2cc(O[C@@H]3CCCN(C(=O)OC4CCCC4)C3)nc(N3CCOCC3)n2)c(N)n1 [Compound 526] | < 1000 nM
53 | Nc1ncc(-c2cc(OC3CCOCC3)nc(N3CCOCC3)n2)cn1 [Compound 515] | < 1000 nM
54 | CN(C)c1nc2ccccc2cc1-c1cc(-c2ccc(N)nc2)nc(N2CCOCC2)n1 [Compound 500] | < 1000 nM
55 | Nc1ncc(-c2cc(Nc3cnc4ccc(OC(F)(F)F)cc4c3)nc(N3CCOCC3)n2)cn1 [Compound 495] | < 1000 nM
56 | Cc1nc(N)ncc1-c1cc(Nc2ccc3c(c2)OCCO3)nc(N2CCOCC2)n1 [Compound 477] | < 1000 nM
